ChEMBL document CHEMBL4602739, “Design and Synthesis of a Trifunctional Molecular System "Programmed" to Block Epidermal Growth Factor Receptor Tyrosine Kinase, Induce High Levels of DNA Damage, and Inhibit the DNA Repair Enzyme (Poly(ADP-ribose) Polymerase) in Prostate Cancer Cells” (J Med Chem, 2020)
Blank lines part the entries; values can stand above or below the compound they belong to. The source made the active and inactive calls. The calls are words filed in the database; no cut-off is given here.

Legend:
PC-3 [1] = assay: Inhibition of PARP in human PC3 cells assessed as reduction in auto-PARylation at 10 uM measured after 48 hrs by Western blot analysis; format: cell-based
CWR22R [2] = assay: Inhibition of PARP in human 22Rv1 cells assessed as reduction in auto-PARylation at 10 uM measured after 48 hrs by Western blot analysis; format: cell-based
CWR22R [3] = assay: Growth inhibition of human 22Rv1 cells after 5 days by SRB assay; format: functional, cell-based; settings: 22Rv1, 120 h
PC-3 [4] = assay: Growth inhibition of human PC3 cells after 5 days by SRB assay; format: functional, cell-based; settings: PC-3, 120 h
DU-145 = assay: Growth inhibition of human DU145 cells after 5 days by SRB assay; format: functional, cell-based; settings: DU-145, 120 h
[5] = molecular target: T1, Epidermal growth factor receptor (Homo sapiens, UniProt P00533); assay: Inhibition of EGFR in human PC3 cells assessed as reduction in EGF-stimulated EGFR phosphorylation preincubated for 2 hrs followed by EGF stimulation and measured after 30 mins by Western blot analysis; format: cell-based; settings: PC-3
T1 sequence (P00533 whole entry): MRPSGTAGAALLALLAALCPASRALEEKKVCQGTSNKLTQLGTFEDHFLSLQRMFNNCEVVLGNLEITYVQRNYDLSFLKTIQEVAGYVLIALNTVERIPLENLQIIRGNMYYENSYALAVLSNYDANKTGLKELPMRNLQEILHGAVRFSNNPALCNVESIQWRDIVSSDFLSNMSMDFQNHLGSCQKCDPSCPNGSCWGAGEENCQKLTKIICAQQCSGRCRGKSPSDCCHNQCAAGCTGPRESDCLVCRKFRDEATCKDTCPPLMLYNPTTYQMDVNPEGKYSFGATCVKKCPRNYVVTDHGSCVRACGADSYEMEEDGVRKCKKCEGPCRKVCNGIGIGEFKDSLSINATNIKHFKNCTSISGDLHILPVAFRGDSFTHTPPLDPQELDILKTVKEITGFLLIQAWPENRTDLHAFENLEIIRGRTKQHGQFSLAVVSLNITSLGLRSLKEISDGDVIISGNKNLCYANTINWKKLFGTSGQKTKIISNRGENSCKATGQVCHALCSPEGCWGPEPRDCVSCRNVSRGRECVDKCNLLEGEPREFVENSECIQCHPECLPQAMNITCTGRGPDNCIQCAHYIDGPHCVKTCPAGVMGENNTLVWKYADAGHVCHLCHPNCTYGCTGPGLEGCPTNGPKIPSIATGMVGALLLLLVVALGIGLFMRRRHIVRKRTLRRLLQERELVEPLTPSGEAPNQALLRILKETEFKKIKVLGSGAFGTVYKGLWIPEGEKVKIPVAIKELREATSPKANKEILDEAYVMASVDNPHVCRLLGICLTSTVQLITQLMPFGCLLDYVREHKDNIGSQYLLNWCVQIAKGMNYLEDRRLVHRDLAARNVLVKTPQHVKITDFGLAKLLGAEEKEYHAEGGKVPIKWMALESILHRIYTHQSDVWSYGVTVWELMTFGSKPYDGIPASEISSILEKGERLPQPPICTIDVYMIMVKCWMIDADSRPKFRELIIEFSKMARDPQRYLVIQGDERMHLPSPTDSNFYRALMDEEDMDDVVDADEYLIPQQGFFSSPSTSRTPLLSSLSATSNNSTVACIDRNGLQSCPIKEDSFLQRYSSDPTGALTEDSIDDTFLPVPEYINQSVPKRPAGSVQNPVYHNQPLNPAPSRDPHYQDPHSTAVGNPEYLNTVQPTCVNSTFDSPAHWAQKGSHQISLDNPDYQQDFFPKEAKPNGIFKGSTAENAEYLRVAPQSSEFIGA

[6] = molecular target: T1, Epidermal growth factor receptor; assay: Inhibition of EGFR in human PC3 cells assessed as reduction in EGF-stimulated EGFR phosphorylation at <= 1 uM preincubated for 2 hrs followed by EGF stimulation and measured after 30 mins by Western blot analysis relative to control; format: cell-based; settings: PC-3
[7] = molecular target: T1, Epidermal growth factor receptor; assay: Inhibition of EGFR in human 22Rv1 cells assessed as reduction in EGF-stimulated EGFR phosphorylation preincubated for 2 hrs followed by EGF stimulation and measured after 30 mins by Western blot analysis; format: cell-based; settings: CWR22R
[8] = molecular target: T1, Epidermal growth factor receptor; assay: Inhibition of EGFR in human 22Rv1 cells assessed as reduction in EGF-stimulated EGFR phosphorylation at <= 1 uM preincubated for 2 hrs followed by EGF stimulation and measured after 30 mins by Western blot analysis relative to control; format: cell-based; settings: CWR22R
[9] = molecular target: T1, Epidermal growth factor receptor; assay: Inhibition of recombinant human N-terminal GST-tagged EGFR (668 to end residues) expressed in baculovirus infected Sf9 insect cells assessed as reduction in […] EGFR phosphorylation […] by TMB peroxidase substrate based assay
[10] = molecular target: T1, Epidermal growth factor receptor; assay: Inhibition of EGFR in human PC3 cells assessed as reduction in EGF-stimulated ERK phosphorylation at 0.1 to 100 uM preincubated for 2 hrs followed by EGF stimulation and measured after 30 mins by Western blot analysis; format: cell-based; settings: PC-3
[11] = molecular target: T1, Epidermal growth factor receptor; assay: Inhibition of EGFR in human PC3 cells assessed as reduction in EGF-stimulated AKT phosphorylation at 0.1 to 100 uM preincubated for 2 hrs followed by EGF stimulation and measured after 30 mins by Western blot analysis; format: cell-based; settings: PC-3
[12] = Selectivity ratio of IC50 for EGFR (unknown origin) transfected in mouse NIH/3T3 cells to IC50 for EGFR in mouse NIH/3T3 cells; format: cell-based
DNA [13] = assay: Induction of DNA damage in human PC3 cells measured after 2 to 24 hrs by alkaline commet assay; format: cell-based; settings: PC-3
DNA [14] = assay: Induction of DNA damage in human 22Rv1 cells measured after 2 to 24 hrs by alkaline commet assay; format: cell-based; settings: CWR22R
DNA [15] = assay: Induction of DNA damage in human PC3 cells at 12.5 uM measured after 2 to 24 hrs by alkaline commet assay relative to busulfan; format: cell-based; settings: PC-3
DNA [16] = assay: Induction of DNA damage in human 22Rv1 cells at 12.5 measured after 2 to 24 hrs by alkaline commet assay relative to busulfan; format: cell-based; settings: CWR22R
DNA [17] = assay: Induction of DNA damage in human PC3 cells assessed as increase in gammaH2AX phosphorylation up to 20 uM measured after 48 hrs by Western blot analysis; format: cell-based; settings: PC-3
DNA [18] = assay: Induction of DNA damage in human 22Rv1 cells assessed as increase in gammaH2AX phosphorylation up to 20 uM measured after 48 hrs by Western blot analysis; format: cell-based; settings: CWR22R
PC-3 [19] = assay: Inhibition of PARP in human PC3 cells assessed as reduction in auto-PARylation up to 20 uM measured after 48 hrs by Western blot analysis; format: cell-based
CWR22R [20] = assay: Inhibition of PARP in human 22Rv1 cells assessed as reduction in auto-PARylation up to 20 uM measured after 48 hrs by Western blot analysis; format: cell-based
Homo sapiens = species on record: Homo sapiens; assay: Selectivity ratio of IC50 for BRCA mutant (unknown origin) expressed in Cricetulus griseus VCA cells to IC50 for BRCA (unknown origin) expressed in Cricetulus griseus VCA cells; format: cell-based
[21] = Drug uptake in human 22Rv1 cells at 25 uM measured up to 6 hrs by LC-MS/MS analysis; format: ADME, cell-based; settings: cwr22r
[22] = Drug uptake in human 22Rv1 cells assessed as drug accumulation in perinuclear region at 10 uM measured after 2 hrs by confocal laser scanning microscopic analysis; format: ADME, cell-based; settings: cwr22r
[23] = Induction of 2'-Deoxyguanosine depurination at 0.1 mM measured after 24 hrs by LC-MS analysis; settings: 100 µM

IC50 (PC-3 [4]): 20.6 µM | IC50 (DU-145): 17.7 µM
Structure (SMILES): O=C(c1cc(Cc2n[nH]c(=O)c3ccccc23)ccc1F)N1CCN(C(=O)C2CC2)CC1 [OLAPARIB]
inhibition (PC-3 [1]): Active | inhibition (CWR22R [2]): Active | IC50 (CWR22R [3]): 33.8 µM

IC50 (PC-3 [4]): 36.2 µM | IC50 (DU-145): 25.8 µM
Structure (SMILES): CS(=O)(=O)OCCCCOS(C)(=O)=O [BUSULFAN]
IC50 (CWR22R [3]): 24.3 µM

inhibition [5]: Dose-dependent effect | inhibition [6]: 34 to 45% | inhibition [7]: Dose-dependent effect | inhibition [8]: 34 to 45% | IC50 [9]: 0.326 µM | inhibition [10]: Active | inhibition [11]: Active | IC50 (PC-3 [4]): 3 µM | IC50 (DU-145): 3.2 µM | Drug uptake [21]: Active | Drug uptake [22]: Active | Drug metabolism [23]: Metabolite_Detected
Structure (SMILES): CN(CCOS(=O)(=O)CCc1cn(CCCC(=O)N2CCN(C(=O)c3cc(Cc4n[nH]c(=O)c5ccccc45)ccc3F)CC2)nn1)c1ccc2ncnc(Nc3cccc(Br)c3)c2c1
Ratio IC50 [12]: 7 | Activity (DNA [13]): Dose-dependent effect | Activity (DNA [14]): Dose-dependent effect | fold change (FC) (DNA [15]): 3 to 6 | fold change (FC) (DNA [16]): 3 to 6 | Activity (DNA [17]): Active | Activity (DNA [18]): Active | inhibition (PC-3 [19]): Active | inhibition (CWR22R [20]): Active | Ratio IC50 (Homo sapiens): 3 to 4 | IC50 (CWR22R [3]): 1.9 µM
